The structures appear in SMILES notation.

The source of these data is US9084735B2, “Self-assembling bis-urea compounds for drug delivery” (International Business Machines Corporation, priority 2013, dated 2015).

Series [1] can be described thus: Zeta potential of cationic nanofibers before and after drug encapsulation (piperacillin). It is filed as physicochemical. To be noted: for zeta potential of nanofibers after drug loading: after piperacillin loading; for zeta potential of nanofibers before drug loading: before piperacillin loading. The text has this:
The zeta potential of cationic nanofibers before and after drug encapsulation was investigated using the drug piperacillin and C-4 and C-14. […] The zeta potential values of nanofibers of C-14 before and after drug loading were 36.3 and 21.1 mV, respectively. The reduced zeta potential was attributed to the electrostatic interaction between cationic nanofiber and the drug. This proves the formation of a complex between cationic nanofiber and the drug.

Series [2] is described as follows: Nanofiber dimensions by AFM. It is filed as physicochemical. To be noted: film/solution on mica. On the procedure: Atomic force microscopy (AFM) images were acquired on commercial instrumentation under fluid in intermittent contact (‘tapping’) mode at a 0.5 Hz scan rate with silicon on nitride cantilevers of spring constant about 0.35 N/m. For this study, images were collected over scan areas from 1×1 micrometer to 10×10 micrometers at 1024×1024 pixel resolution. Samples were prepared by depositing 60 microliters of polymer solution (at a concentration appropriate for imaging) in water on mica. The statistical mean height (zm) of the nanoparticles was obtained through Gwyddion software for particle analysis using height threshold algorithm.
The dry nanofiber AFM (FIG. 3A) and solution AFM (FIGS. 3B and 3C) of nanofibers formed with C-4 show anisotropic structures having considerably shorter lengths and an average diameter of 4 nm.

Series [3] relates to S. aureus (ATCC No. 6538). Briefly: MIC by broth microdilution (OD600 growth inhibition). To be noted: for growth inhibition of S. aureus by nanofibers alone (OD): blank nanofibers without drug. Type of series: cell-based, Staphylococcus aureus. The method, then:
The minimum inhibitory concentrations (MICs) of the penG-loaded nanofibers were measured using a broth microdilution method. First, penG-loaded nanofiber solutions were diluted to give final penG concentrations of 0.05, 0.1, 0.5, 1.0, 5.0 and 10.0 mg/L. S. aureus was grown in tryptic soy broth (TSB) at 37° C. with 300 rpm. The optical density (OD) of the S. aureus solution was adjusted to OD600 nm=0.1 by the addition of TSB. This S. aureus solution was further diluted 100 times (5.7×10^6 CFU/mL). The penG-loaded nanofiber solution (100 microliters) was transferred to each well of a 96 well plate (NUNC), followed by the addition of 100 microliters of the S. aureus solution. TSB was used as a control. The optical density readings of S. aureus solutions were monitored by measuring OD600 nm at predetermined times (0 hours and 18 hours). The assay was performed in four replicates for each sample and the experiments were repeated at least three times.
A general note: Dilution methods test growth across graded concentrations, often in twofold steps.

The nature of series [4]: Critical micelle concentration of cationic compounds. Type of series: physicochemical. To be noted: in water.
A short description of series [5]: Nanofiber morphology by TEM. It is filed as physicochemical. To be noted: C-4 200 mg/L, C-14 80 mg/L. On the procedure: The morphologies of the cationic compounds were analyzed by TEM (FEI Tecnai G^2 F20 electron microscope). Cationic compounds solution (5 microliters) were placed on a copper grid coated with carbon film and incubated for 1 minute. Phosphotungstic acid solution (0.1 w/v, 5 microliters) was applied and incubated for another minute. The extra sample on the grid was absorbed by filter paper. The samples were air-dried at room temperature. The TEM observations were carried out with an electron kinetic energy of 200 keV.
FIGS. 2A to 2C are transmission electron micrographs (TEM) of a cast film of the nanofibers formed with C-4 at different magnifications.

Take `NCCCCNC(=O)Nc1ccc(CNC(=O)c2ccc(C(=O)NCc3ccc(NC(=O)NCCCCN)cc3)cc2)cc1` [Compound C-4]: in series [1], the “zeta potential of nanofibers after drug loading” value was found to be 23.1 mV and the “zeta potential of nanofibers before drug loading” value came out at 35.2 mV. In addition, in series [2], the “average fiber diameter (AFM)” value is reported as 4 nm. For the same molecule, the “growth inhibition of S. aureus by nanofibers alone (OD)” value in series [3] is “do not inhibit growth”. In series [4], this molecule displayed a CMC of 12 mg/L. The “fiber length (TEM)” value in series [5] is given as “several hundred”.
`NCc1ccc(CNC(=O)Nc2ccc(CNC(=O)c3ccc(C(=O)NCc4ccc(NC(=O)NCc5ccc(CN)cc5)cc4)cc3)cc2)cc1` [Compound C-14]: in series [1], the “zeta potential of nanofibers after drug loading” value worked out at 21.1 mV and the “zeta potential of nanofibers before drug loading” value is reported as 36.3 mV. In addition, the “growth inhibition of S. aureus by nanofibers alone (OD)” value in series [3] is recorded as “do not inhibit growth”. Also, the CMC in series [4] came out at 20 mg/L. Further, in series [5], the “fiber diameter (TEM)” value is given as approximately 5 nm and the “fiber length (TEM)” value is reported as “several hundred”.
Take `CC1(C)S[C@@H]2[C@H](NC(=O)Cc3ccccc3)C(=O)N2[C@H]1C(=O)[O-].[K+]` [penG, Penicillin G potassium salt, reference compound]: in series [3] (penG concentration, 18 hours, 5.7×10^6 CFU/mL, TSB), the “minimum concentration suppressing growth (MIC)” value is listed as 0.05 mg/L.
